Measured values published in US8741899B2, “(4-chloro-2-fluoro-N-(2-fluorophenyl)-5-[(8aR)-hexahydropyrrolo-[1,2-a]pyrazin-2(1H)-ylcarbonyl]-benzenesulfonamide, and pharmaceutically acceptable salts thereof” (AbbVie Inc., priority 2009, dated 2014).

Key:
[1] = test system: Sprague Dawley rats; assay: Capsaicin induced secondary mechanical hyperalgesia model; type: in vivo; details: rat, 60 minutes before testing, secondary mechanical hyperalgesia 180 minutes after capsaicin, von Frey filaments
Description: (ii) In Vivo Data—Capsaicin Induced Secondary Mechanical Hyperalgesia Model:
Sprague Dawley rats were briefly restrained, and capsaicin was administered at 10 μg in 10 μL of vehicle by intraplantar injection into the center of the right hind paw. Secondary mechanical hyperalgesia (SMH) was measured at the heel away from the site of injection 180 minutes following capsaicin exposure. Compounds and gabapentin (positive control), were administered p.o. 60 minutes before testing (2 hours after capsaicin) or i.p. 30 minutes before testing (2.5 hours after capsaicin). SMH was measured using calibrated von Frey filaments (Stoelting, Woodale, Ill.). Following the 1 hour habituation in the testing room, rats were moved to individual plexiglass chambers that sit on top of a wire mesh to allow for access for stimulation of the plantar surface of the hind paws. Rats were allowed to acclimate to the new chambers for 15 minutes before the onset of testing. The paw withdrawal threshold was determined by increasing and decreasing stimulus intensity (force: g) and calculated using Dixon's up-down method (Chaplan, S. R.; Bach, F. W.; Pogrel, J. W.; Chung, J. M.; Yaksh, T. L.; Quantitative assessment of tactile allodynia in the rat paw. J. Neuroscience Methods 1994, 53(1), 55-63). The filaments (maximum force of 15.0 g) were held in place for 8 seconds or until there was a withdrawal response from the mechanical stimulation.

[2] = target: T1, Human Cav3.2 Channels (Homo sapiens, UniProt O95180); assay: Electrophysiologic (whole-cell patch-clamp) assessment of calcium channel activity in HEK293 cells stably expressing hCav3.2; type: cell-based; details: −77 mV, geometric mean, read-out: Human Cav3.2 −77 mV IC50 (μM) GeoMean
T1 construct: expressed in transfected cells
T1 sequence (O95180 whole entry): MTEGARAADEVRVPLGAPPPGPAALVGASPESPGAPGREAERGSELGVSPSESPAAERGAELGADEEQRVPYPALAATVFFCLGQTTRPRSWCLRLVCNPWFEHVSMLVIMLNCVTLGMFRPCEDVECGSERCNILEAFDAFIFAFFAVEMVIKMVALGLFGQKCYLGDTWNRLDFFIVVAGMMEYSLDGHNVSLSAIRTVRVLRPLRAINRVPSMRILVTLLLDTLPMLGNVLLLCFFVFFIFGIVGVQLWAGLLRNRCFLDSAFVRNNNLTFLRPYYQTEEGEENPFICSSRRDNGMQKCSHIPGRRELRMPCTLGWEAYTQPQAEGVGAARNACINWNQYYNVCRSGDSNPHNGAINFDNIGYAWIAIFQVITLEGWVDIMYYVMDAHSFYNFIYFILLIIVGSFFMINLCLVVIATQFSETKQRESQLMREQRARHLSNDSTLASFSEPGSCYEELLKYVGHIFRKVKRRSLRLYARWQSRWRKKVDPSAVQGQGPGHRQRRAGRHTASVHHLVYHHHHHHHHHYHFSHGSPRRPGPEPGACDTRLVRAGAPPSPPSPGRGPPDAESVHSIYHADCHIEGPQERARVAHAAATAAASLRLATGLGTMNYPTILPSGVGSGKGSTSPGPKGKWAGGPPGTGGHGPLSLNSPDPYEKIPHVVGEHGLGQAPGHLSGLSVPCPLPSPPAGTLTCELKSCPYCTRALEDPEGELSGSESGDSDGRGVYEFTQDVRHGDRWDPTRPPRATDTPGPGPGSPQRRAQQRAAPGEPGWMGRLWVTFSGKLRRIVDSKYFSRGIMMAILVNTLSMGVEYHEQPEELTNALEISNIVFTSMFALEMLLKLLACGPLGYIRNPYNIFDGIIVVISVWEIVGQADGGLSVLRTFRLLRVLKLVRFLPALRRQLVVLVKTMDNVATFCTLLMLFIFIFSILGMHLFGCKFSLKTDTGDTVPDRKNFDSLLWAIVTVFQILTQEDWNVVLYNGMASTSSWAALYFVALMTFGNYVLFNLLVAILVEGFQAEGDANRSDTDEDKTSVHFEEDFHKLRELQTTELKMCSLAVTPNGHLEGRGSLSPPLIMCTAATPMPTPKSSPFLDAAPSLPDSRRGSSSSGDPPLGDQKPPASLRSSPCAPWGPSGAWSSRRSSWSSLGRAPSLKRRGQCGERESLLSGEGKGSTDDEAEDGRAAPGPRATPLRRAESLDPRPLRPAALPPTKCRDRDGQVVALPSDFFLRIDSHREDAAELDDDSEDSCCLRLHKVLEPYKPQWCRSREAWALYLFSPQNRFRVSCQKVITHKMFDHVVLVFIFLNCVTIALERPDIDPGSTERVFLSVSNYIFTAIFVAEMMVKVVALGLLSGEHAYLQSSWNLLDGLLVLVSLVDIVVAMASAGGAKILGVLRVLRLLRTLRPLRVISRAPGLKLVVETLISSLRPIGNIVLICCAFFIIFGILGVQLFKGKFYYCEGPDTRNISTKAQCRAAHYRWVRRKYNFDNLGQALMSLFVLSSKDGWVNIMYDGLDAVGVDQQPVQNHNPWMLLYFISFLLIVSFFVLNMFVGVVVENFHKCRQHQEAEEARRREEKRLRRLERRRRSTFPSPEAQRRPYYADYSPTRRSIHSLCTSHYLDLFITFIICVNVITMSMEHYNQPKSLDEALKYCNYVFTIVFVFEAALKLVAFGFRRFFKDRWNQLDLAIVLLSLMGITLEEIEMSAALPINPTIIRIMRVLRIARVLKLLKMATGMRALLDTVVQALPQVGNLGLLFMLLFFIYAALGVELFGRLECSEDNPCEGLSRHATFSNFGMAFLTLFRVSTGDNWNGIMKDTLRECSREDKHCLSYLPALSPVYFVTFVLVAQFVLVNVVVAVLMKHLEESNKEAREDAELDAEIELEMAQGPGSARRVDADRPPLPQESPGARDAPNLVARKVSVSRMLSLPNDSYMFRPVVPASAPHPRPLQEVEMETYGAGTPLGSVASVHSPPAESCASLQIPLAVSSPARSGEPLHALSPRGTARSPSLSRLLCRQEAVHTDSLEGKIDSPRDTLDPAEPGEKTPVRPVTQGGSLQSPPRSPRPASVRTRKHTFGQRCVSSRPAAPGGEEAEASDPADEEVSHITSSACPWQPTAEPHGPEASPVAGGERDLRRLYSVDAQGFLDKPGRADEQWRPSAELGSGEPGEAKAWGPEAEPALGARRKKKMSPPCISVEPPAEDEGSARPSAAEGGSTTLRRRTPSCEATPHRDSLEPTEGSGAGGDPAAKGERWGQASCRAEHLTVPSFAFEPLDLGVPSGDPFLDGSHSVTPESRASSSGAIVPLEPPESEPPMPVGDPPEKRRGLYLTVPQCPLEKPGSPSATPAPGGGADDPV
Description: (i) In Vitro Methods—Electrophysiologic Assessment of Calcium Channel Activity:
Patch-clamp recordings were performed using HEK293 cells stably expressing hCav3.2. Cells were plated in T175 flasks and grown at 37° C. and under 5% CO2 to approximately 50% confluency. On the day of the experiment, cells were harvested with Detachin™ cell detachment solution (Genlantis, San Diego, Calif.) and maintained in serum-free culture medium supplemented with 25 mM HEPES up to several hours prior to experiment. Whole-cell patch-clamp recordings were obtained using extracellular saline consisting of (mM): 87.5 CsCl, 40 TEA-Cl, 5 CaCl2, 1 MgCl2, 10 HEPES, 10 glucose. The pH was adjusted to 7.2 with CsOH and the osmolarity was adjusted to approximately 310 mOsm with sucrose. Intracellular solution consisted of (mM): 112 CsCl, 27 CsF, 2 NaCl, 8.2 EGTA, 10 HEPES. Prior to an experiment 4 mM Mg2ATP was added and the pH was adjusted to 7.2 with CsOH with an osmolarity of approximately 290 mOsm. A two-pulse voltage protocol was utilized to assess compound inhibition. First, cells were held with an 8 s pre-pulse at −100 mV prior to a 160 ms test pulse to −30 mV. This was followed by an 8 s pre-pulse at approximately −75 mV prior to a […]. Increasing concentrations of antagonist were applied to individual cells in a multi-addition format with 5 minutes in each test concentration. For each cell, responses were normalized to dimethyl sulfoxide vehicle control to generate concentration-response curves.

SMILES: O=C(c1cccc(S(=O)(=O)Nc2ccccc2F)c1)N1CCN2CCC[C@@H]2C1 [Example 2, N-(2-fluorophenyl)-3-[(8aR)-hexahydropyrrolo[1,2-a]pyrazin-2(1H)-ylcarbonyl]benzenesulfonamide]
- Inhibition to Pain Response, % inhibition @ 30 mg/kg p.o. [1]: 58%
- IC50 [2]: 10.6 µM

SMILES: O=C(c1cccc(S(=O)(=O)Nc2cccc(F)c2)c1)N1CCN2CCC[C@H]2C1 [Example 3, N-(3-fluorophenyl)-3-[(8aS)-hexahydropyrrolo[1,2-a]pyrazin-2(1H)-ylcarbonyl]benzenesulfonamide]
- Inhibition to Pain Response, % inhibition @ 30 mg/kg p.o. [1]: 44%
- IC50 [2]: 5.9 µM

SMILES: O=C(c1cccc(S(=O)(=O)Nc2c(F)cccc2F)c1)N1CCN2CCC[C@@H]2C1 [Example 13, N-(2,6-difluorophenyl)-3-[(8aR)-hexahydropyrrolo[1,2-a]pyrazin-2(1H)-ylcarbonyl]benzenesulfonamide]
- Inhibition to Pain Response, % inhibition @ 30 mg/kg p.o. [1]: 37%
- IC50 [2]: 5.6 µM

SMILES: O=C(c1cc(S(=O)(=O)Nc2ccccc2F)c(F)cc1Cl)N1CCN2CCC[C@@H]2C1 [Example 20, 4-chloro-2-fluoro-N-(2-fluorophenyl)-5-[(8aR)-hexahydropyrrolo[1,2-a]pyrazin-2(1H)-ylcarbonyl]benzenesulfonamide]
- Inhibition to Pain Response, % inhibition @ 30 mg/kg p.o. [1]: 43%
- IC50 [2]: 6 µM

SMILES: O=C(c1cccc(S(=O)(=O)Nc2ccc(C(F)(F)F)cc2)c1)N1CCN2CCCCC2C1 (centres unmarked) [Example 37, 3-(octahydro-2H-pyrido[1,2-a]pyrazin-2-ylcarbonyl)-N-[4-(trifluoromethyl)phenyl]benzenesulfonamide]
- Inhibition to Pain Response, % inhibition @ 30 mg/kg p.o. [1]: 63%
- IC50 [2]: 1.1 µM

SMILES: O=C(c1cc(S(=O)(=O)Nc2ccccc2F)c(Cl)cc1Cl)N1CCN2CCC[C@@H]2C1 [Example 64, 2,4-dichloro-N-(2-fluorophenyl)-5-[(8aR)-hexahydropyrrolo[1,2-a]pyrazin-2(1H)-ylcarbonyl]benzenesulfonamide]
- Inhibition to Pain Response, % inhibition @ 30 mg/kg p.o. [1]: 57%
- IC50 [2]: 1.7 µM

SMILES: O=C(Nc1cc(C(=O)N2CCN3CCC[C@@H]3C2)ccc1F)c1cc(Cl)cc(Cl)c1 [Example 73, 3,5-dichloro-N-{2-fluoro-5-[(8aR)-hexahydropyrrolo[1,2-a]pyrazin-2(1H)-ylcarbonyl]phenyl}benzamide]
- IC50 [2]: 1.8 µM

SMILES: O=C(c1cc(S(=O)(=O)NC(c2ccccc2)c2ccccc2)c(F)cc1Cl)N1CCN2CCC[C@@H]2C1 [Example 74, N-benzhydryl-4-chloro-2-fluoro-5-[(8aR)-hexahydropyrrolo[1,2-a]pyrazin-2(1H)-ylcarbonyl]benzenesulfonamide]
- IC50 [2]: 2 µM

SMILES: O=C(Nc1ccc(C(=O)N2CCN3CCC[C@@H]3C2)cc1Cl)C(c1ccccc1)c1ccccc1 [Example 75, N-{2-chloro-4-[(8aR)-hexahydropyrrolo[1,2-a]pyrazin-2(1H)-ylcarbonyl]phenyl}-2,2-diphenylacetamide]
- IC50 [2]: 6.5 µM

SMILES: O=C(Nc1ccc(C(=O)N2CCN3CCC[C@@H]3C2)cc1Cl)c1ccc2ccccc2c1 [Example 76, N-{2-chloro-4-[(8aR)-hexahydropyrrolo[1,2-a]pyrazin-2(1H)-ylcarbonyl]phenyl}-2-naphthamide]
- IC50 [2]: 6.4 µM

SMILES: CC(C)N(c1cccc(C(=O)N2CCN3CCC[C@@H]3C2)c1)S(=O)(=O)c1cccc(C(F)(F)F)c1 [Example 77, N-{3-[(8aR)-hexahydropyrrolo[1,2-a]pyrazin-2(1H)-ylcarbonyl]phenyl}-N-isopropyl-3-(trifluoromethyl)benzenesulfonamide]
- IC50 [2]: > 10 µM

SMILES: O=C(Nc1cc(C(=O)N2CCN3CCC[C@@H]3C2)ccc1Cl)C(c1ccccc1)c1ccccc1 [Example 78, N-{2-chloro-5-[(8aR)-hexahydropyrrolo[1,2-a]pyrazin-2(1H)-ylcarbonyl]phenyl}-2,2-diphenylacetamide]
- IC50 [2]: > 10 µM

SMILES: O=C(c1ccc(Cl)c(NC(c2ccccc2)c2ccccc2)c1)N1CCN2CCC[C@@H]2C1 [Example 79, N-benzhydryl-N-{2-chloro-5-[(8aR)-hexahydropyrrolo[1,2-a]pyrazin-2(1H)-ylcarbonyl]phenyl}amine]
- IC50 [2]: 8.5 µM

SMILES: O=C(c1cccc(NC(c2ccccc2)c2ccccc2)c1)N1CCN2CCC[C@@H]2C1 [Example 80, N-benzhydryl-N-{3-[(8aR)-hexahydropyrrolo[1,2-a]pyrazin-2(1H)-ylcarbonyl]phenyl}amine]
- IC50 [2]: 2 µM

SMILES: O=C(N[C@H](CO)c1ccccc1)c1cccc(S(=O)(=O)N2CCN3CCC[C@@H]3C2)c1 [Example 81, 3-[(8aR)-hexahydropyrrolo[1,2-a]pyrazin-2(1H)-ylsulfonyl]-N-[(1S)-2-hydroxy-1-phenylethyl]benzamide]
- IC50 [2]: > 10 µM

SMILES: O=C(NC(c1ccccc1)c1ccccc1)c1cc(S(=O)(=O)N2CCN3CCC[C@H]3C2)c(F)cc1Cl [Example 82, N-benzhydryl-2-chloro-4-fluoro-5-[(8aS)-hexahydropyrrolo[1,2-a]pyrazin-2(1H)-ylsulfonyl]benzamide]
- IC50 [2]: 2.6 µM

SMILES: O=C(NC1CC1)c1cc(S(=O)(=O)N2CCN3CCC[C@H]3C2)c(F)cc1Cl [Example 83, 2-chloro-N-cyclopropyl-4-fluoro-5-[(8aS)-hexahydropyrrolo[1,2-a]pyrazin-2(1H)-ylsulfonyl]benzamide]
- IC50 [2]: > 10 µM
